{"source": "patent US20240059703A1", "about": "(AMGEN INC., priority 2021, published 2024)", "molecular_target": "KRAS G12C (Homo sapiens (Human), UniProt P01116, C118A/G12C)", "sequence (P01116 other isoform, or with tags, fused parts or gaps G12C/C118A)": "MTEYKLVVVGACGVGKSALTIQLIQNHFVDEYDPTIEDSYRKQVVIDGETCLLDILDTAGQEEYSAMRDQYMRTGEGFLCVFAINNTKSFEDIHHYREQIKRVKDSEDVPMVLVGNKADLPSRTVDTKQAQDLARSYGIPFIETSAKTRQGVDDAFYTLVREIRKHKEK", "assay": "2 h coupled exchange assay", "assay_type": "biochemical", "description": "The term “2 h coupled exchange assay” or “20 h coupled exchange assay” as used herein refers to the assay described in the Section entitled “BIOLOGICAL EVALUATION.”", "key": {"[1]": {"details": "Avg 2 h Coupled exchange IC50, 2 h compound pre-incubation, SOS-mediated nucleotide exchange"}}, "note": "Where two headings read alike, the source gives them in different places."}
{"compound": "C=CC(=O)N1CC2(CCN(c3nc4ccccc4c(-c4c(C)ccc5[nH]ncc45)c3C=C)C2)C1", "note": "(atropisomer, axis not shown; (M)) [Example 26-2, (M)-1-(6-(3-ethenyl-4-(5-methyl-1H-indazol-4-yl)-2-quinolinyl)-2,6-diazaspiro[3.4]octan-2-yl)-2-propen-1-one]", "values": [{"measurement": "IC50", "setting": "read-out: Avg 2 h Coupled exchange IC50, 2 h compound pre-incubation", "value": 34.6, "unit": "µM"}]}
{"compound": "C=CC(=O)N1CC2(CCN(c3nc4c(c(-c5c(C)ccc6[nH]ncc56)c3C#N)CC(C)(C)C4)[C@H]2C)C1", "note": "(atropisomer, axis not shown; (P)) [Example 13-53, (P)-6,6-dimethyl-4-(5-methyl-1H-indazol-4-yl)-2-((5S)-5-methyl-2-(2-propenoyl)-2,6-diazaspiro[3.4]octan-6-yl)-6,7-dihydro-5H-cyclopenta[b]pyridine-3-carbonitrile]", "values": [{"measurement": "IC50", "setting": "[1]", "value": 0.657, "unit": "µM"}]}
{"compound": "CN(C)C/C=C/C(=O)N1CC2(CCN(c3nc4c(c(-c5cc(O)cc6ccccc56)c3C#N)CC[C@@H]3C[C@H]43)C2)C1", "note": "(atropisomer, axis not shown; (P)) [Example 13-87, (P)-(6aR,7aS)-2-(2-((2E)-4-(dimethylamino)-2-butenoyl)-2,6-diazaspiro[3.4]octan-6-yl)-4-(3-hydroxy-1-naphthalenyl)-6,6a,7,7a-tetrahydro-5H-cyclopropa[h]quinoline-3-carbonitrile]", "values": [{"measurement": "IC50", "setting": "[1]", "value": 0.13, "unit": "µM"}]}
{"compound": "CN(C)C/C=C/C(=O)N1CC2(CCN(c3nc4c(c(-c5cc(O)cc6ccccc56)c3C#N)CC[C@H]3C[C@@H]43)C2)C1", "note": "(racemic) [Example 13-86, (M)-(6aR,7aS)-2-(2-((2E)-4-(dimethylamino)-2-butenoyl)-2,6-diazaspiro[3.4]octan-6-yl)-4-(3-hydroxy-1-naphthalenyl)-6,6a,7,7a-tetrahydro-5H-cyclopropa[h]quinoline-3-carbonitrile and (M)-(6aS,7aR)-2-(2-((E)-4-(dimethylamino)but-2-enoyl)-2,6-diazaspiro[3.4]octan-6-yl)-4-(3-hydroxynaphthalen-1-yl)-6,6a,7,7a-tetrahydro-5H-cyclopropan[h]quinoline-3-carbonitrile]", "values": [{"measurement": "IC50", "setting": "[1]", "value": 20.4, "unit": "µM"}]}
{"compound": "C=CC(=O)N1CC2(CCN(c3nc4c(c(-c5c(C)ccc6[nH]ncc56)c3C)CCC(C)(C)C4)C2)C1", "note": "(single isomer, unassigned) [Example 2-12, (M)-1-(6-(3,7,7-trimethyl-4-(5-methyl-1H-indazol-4-yl)-5,6,7,8-tetrahydro-2-quinolinyl)-2,6-diazaspiro[3.4]octan-2-yl)-2-propen-1-one]", "values": [{"measurement": "IC50", "setting": "[1]", "value": 1.11, "unit": "µM"}]}
{"compound": "C=CC(=O)N1CC2(CCN(c3nc4c(c(-c5cccc6cc(O)ccc56)c3C)CCC(C)(C)C4)C2)C1", "note": "(single isomer, unassigned) [Example 2-14, (M)-1-(6-(4-(6-hydroxy-1-naphthalenyl)-3,7,7-trimethyl-5,6,7,8-tetrahydro-2-quinolinyl)-2,6-diazaspiro[3.4]ctan-2-yl)-2-opropen-1-one]", "values": [{"measurement": "IC50", "setting": "[1]", "value": 2.9, "unit": "µM"}]}
{"compound": "C=CC(=O)N1CC2(CCN(c3nc4c(c(-c5ccc(F)c6sc(N)nc56)c3C)CCC(C)(C)C4)C2)C1", "note": "(single isomer, unassigned) [Example 2-18]", "values": [{"measurement": "IC50", "setting": "[1]", "value": 5.24, "unit": "µM"}]}
{"compound": "C=CC(=O)N1CC2(CCN(c3nc4c(c(-c5c(C)ccc6cnn(C)c56)c3C)CCC(C)(C)C4)C2)C1", "note": "(single isomer, unassigned) [Example 2-20, (M)-1-(6-(4-(1,6-dimethyl-1H-indazol-7-yl)-3,7,7-trimethyl-5,6,7,8-tetrahydro-2-quinolinyl)-2,6-diazaspiro[3.4]octan-2-yl)-2-propen-1-one]", "values": [{"measurement": "IC50", "setting": "[1]", "value": 10.5, "unit": "µM"}]}
{"compound": "C=CC(=O)N1CC2(CCN(c3nc4c(c(-c5c(C)ccc6cn[nH]c56)c3C)CCC(C)(C)C4)C2)C1", "note": "(single isomer, unassigned) [Example 2-24, (P)-1-(6-(3,7,7-trimethyl-4-(6-methyl-1H-indazol-7-yl)-5,6,7,8-tetrahydro-2-quinolinyl)-2,6-diazaspiro[3.4]octan-2-yl)-2-propen-1-one]", "values": [{"measurement": "IC50", "setting": "[1]", "value": 0.119, "unit": "µM"}]}
{"compound": "C=CC(=O)N1CC2(CCN(c3nc4c(c(-c5c(C)ccc6cn[nH]c56)c3C)CCC(C)(C)C4)C2)C1", "note": "(single isomer, unassigned) [Example 2-25, (M)-1-(6-(3,7,7-trimethyl-4-(6-methyl-1H-indazol-7-yl)-5,6,7,8-tetrahydro-2-quinolinyl)-2,6-diazaspiro[3.4]octan-2-yl)-2-propen-1-one]", "values": [{"measurement": "IC50", "setting": "[1]", "value": 6.88, "unit": "µM"}]}
{"compound": "C=CC(=O)N1CC2(CCN(c3nc4c(c(-c5cc(O)cc6cccnc56)c3C#N)C[C@H]3C[C@@H]4C3(C)C)C2)C1", "note": "(single isomer, unassigned) [Example 2-44]", "values": [{"measurement": "IC50", "setting": "[1]", "value": 131, "unit": "µM"}]}
{"compound": "C=CC(=O)N1CC2(CCN(c3nc4c(c(-c5cc(O)cc6ncccc56)c3C#N)C[C@H]3C[C@@H]4C3(C)C)C2)C1", "note": "(single isomer, unassigned) [Example 2-47]", "values": [{"measurement": "IC50", "setting": "[1]", "value": 0.181, "unit": "µM"}]}
{"compound": "C=CC(=O)N1CC2(CCN(c3cc4c(c(-c5cc(O)cc6ccccc56)c3C#N)OCCC4)C2)C1", "note": "(single isomer, unassigned) [Example 2-53, (P)-8-(3-hydroxy-1-naphthalenyl)-6-(2-(2-propenoyl)-2,6-diazaspiro[3.4]octan-6-yl)-3,4-dihydro-2H-chromene-7-carbonitrile]", "values": [{"measurement": "IC50", "setting": "[1]", "value": 7.11, "unit": "µM"}]}
{"compound": "C=CC(=O)N1CC2(CCN(c3nc4ccccc4c(-c4c(C)ccc5[nH]ncc45)c3C)C2)C1", "note": "(single isomer, unassigned) [Example 2-55, (P)-1-(6-(3-methyl-4-(5-methyl-1H-indazol-4-yl)-2-quinolinyl)-2,6-diazaspiro[3.4]octan-2-yl)-2-propen-1-one]", "values": [{"measurement": "IC50", "setting": "[1]", "value": 0.419, "unit": "µM"}]}
{"compound": "C=CC(=O)N1CC2(CCN(c3nc4ccccc4c(-c4c(C)ccc5[nH]ncc45)c3C)C2)C1", "note": "(single isomer, unassigned) [Example 2-56, (M)-1-(6-(3-methyl-4-(5-methyl-1H-indazol-4-yl)-2-quinolinyl)-2,6-diazaspiro[3.4]octan-2-yl)-2-propen-1-one]", "values": [{"measurement": "IC50", "setting": "[1]", "value": 43.6, "unit": "µM"}]}
{"compound": "C=CC(=O)N1CC2(CCN(c3nc4cc(F)ccc4c(-c4c(C)ccc5[nH]ncc45)c3C)[C@@H]2C)C1", "note": "(single isomer, unassigned) [Example 2-59]", "values": [{"measurement": "IC50", "setting": "[1]", "value": 14.9, "unit": "µM"}]}
{"compound": "C=CC(=O)N1CC2(CCN(c3nc4cc(F)ccc4c(-c4c(C)ccc5[nH]ncc45)c3C)[C@H]2C)C1", "note": "(single isomer, unassigned) [Example 2-60]", "values": [{"measurement": "IC50", "setting": "[1]", "value": 4.67, "unit": "µM"}]}
{"compound": "C=CC(=O)N1CC2(CCN(c3nc4c(c(-c5cc(O)ccc5C)c3C#N)C[C@H]3C[C@@H]4C3(C)C)C2)C1", "note": "(single isomer, unassigned) [Example 2-68]", "values": [{"measurement": "IC50", "setting": "[1]", "value": 16, "unit": "µM"}]}
{"compound": "C=CC(=O)N1CC2(CCN(c3nc4c(c(-c5cccc(F)c5O)c3C#N)C[C@H]3C[C@@H]4C3(C)C)C2)C1", "note": "(single isomer, unassigned) [Example 2-71]", "values": [{"measurement": "IC50", "setting": "[1]", "value": 20.3, "unit": "µM"}]}
{"compound": "C=CC(=O)N1CC2(CCN(c3nc4c(c(-c5cccc(F)c5O)c3C#N)C[C@H]3C[C@@H]4C3(C)C)C2)C1", "note": "(single isomer, unassigned) [Example 2-72]", "values": [{"measurement": "IC50", "setting": "[1]", "value": 0.651, "unit": "µM"}]}
{"compound": "C=CC(=O)N1CC2(CCN(c3nc4c(c(-c5cc(O)ccc5Cl)c3C#N)C[C@H]3C[C@@H]4C3(C)C)C2)C1", "note": "(single isomer, unassigned) [Example 2-75]", "values": [{"measurement": "IC50", "setting": "[1]", "value": 0.454, "unit": "µM"}]}
{"compound": "C=CC(=O)N1CC2(CCN(c3nc4c(c(-c5cc(O)ccc5C)c3Cl)COC(C)(C)C4)C2)C1", "note": "(single isomer, unassigned) [Example 2-80, (M)-1-(6-(3-chloro-4-(5-hydroxy-2-methylphenyl)-7,7-dimethyl-7,8-dihydro-5H-pyrano[4,3-b]pyridin-2-yl)-2,6-diazaspiro[3.4]octan-2-yl)-2-propen-1-one]", "values": [{"measurement": "IC50", "setting": "[1]", "value": 20.1, "unit": "µM"}]}
{"compound": "C=CC(=O)N1CC2(CCN(c3nc4c(c(-c5c(C)ccc6[nH]ncc56)c3Cl)COC(C)(C)C4)C2)C1", "note": "(single isomer, unassigned) [Example 2-84, (P)-1-(6-(3-chloro-7,7-dimethyl-4-(5-methyl-1H-indazol-4-yl)-7,8-dihydro-5H-pyrano[4,3-b]pyridin-2-yl)-2,6-diazaspiro[3.4]octan-2-yl)-2-propen-1-one]", "values": [{"measurement": "IC50", "setting": "[1]", "value": 0.808, "unit": "µM"}]}
{"compound": "C=CC(=O)N1CC2(CCN(c3nc4c(c(-c5c(C)ccc6[nH]ncc56)c3Cl)COC(C)(C)C4)C2)C1", "note": "(single isomer, unassigned) [Example 2-85, (M)-1-(6-(3-chloro-7,7-dimethyl-4-(5-methyl-1H-indazol-4-yl)-7,8-dihydro-5H-pyrano[4,3-b]pyridin-2-yl)-2,6-diazaspiro[3.4]octan-2-yl)-2-propen-1-one]", "values": [{"measurement": "IC50", "setting": "[1]", "value": 12.6, "unit": "µM"}]}
{"compound": "C=CC(=O)N1CC2(CCN(c3nc4c(c(-c5c(C)ccc6cnn(C)c56)c3Cl)COC(C)(C)C4)C2)C1", "note": "(single isomer, unassigned) [Example 2-87, (M)-1-(6-(3-chloro-4-(1,6-dimethyl-1H-indazol-7-yl)-7,7-dimethyl-7,8-dihydro-5H-pyrano[4,3-b]pyridin-2-yl)-2,6-diazaspiro[3.4]octan-2-yl)-2-propen-1-one]", "values": [{"measurement": "IC50", "setting": "[1]", "value": 0.115, "unit": "µM"}]}
{"compound": "C=CC(=O)N1CC2(CCN(c3nc4c(c(-c5c(C)ccc6cnn(C)c56)c3Cl)COC(C)(C)C4)C2)C1", "note": "(single isomer, unassigned) [Example 2-88, (P)-1-(6-(3-chloro-4-(1,6-dimethyl-1H-indazol-7-yl)-7,7-dimethyl-7,8-dihydro-5H-pyrano[4,3-b]pyridin-2-yl)-2,6-diazaspiro[3.4]octan-2-yl)-2-propen-1-one]", "values": [{"measurement": "IC50", "setting": "[1]", "value": 4.73, "unit": "µM"}]}
{"compound": "C=CC(=O)N1CC2(CCN(c3nc4c(c(-c5c(C)c(Cl)cc6cnn(C)c56)c3Cl)COC(C)(C)C4)C2)C1", "note": "(single isomer, unassigned) [Example 2-90, (M)-1-(6-(3-chloro-4-(5-chloro-1,6-dimethyl-1H-indazol-7-yl)-7,7-dimethyl-7,8-dihydro-5H-pyrano[4,3-b]pyridin-2-yl)-2,6-diazaspiro[3.4]octan-2-yl)-2-propen-1-one]", "values": [{"measurement": "IC50", "setting": "[1]", "value": 0.005, "unit": "µM"}]}
{"compound": "C=CC(=O)N1CC2(CCN(c3nc4c(c(-c5c(C)c(Cl)cc6cnn(C)c56)c3Cl)COC(C)(C)C4)C2)C1", "note": "(single isomer, unassigned) [Example 2-91, (P)-1-(6-(3-chloro-4-(5-chloro-1,6-dimethyl-1H-indazol-7-yl)-7,7-dimethyl-7,8-dihydro-5H-pyrano[4,3-b]pyridin-2-yl)-2,6-diazaspiro[3.4]octan-2-yl)-2-propen-1-one]", "values": [{"measurement": "IC50", "setting": "[1]", "value": 2.89, "unit": "µM"}]}
